The species named for experiment [1] is Mus musculus. Put plainly: The compound was tested for Mean effective dose which protects the mice against seizures induced by Maximum electroshock (MES). Type of experiment: functional.
The test system of experiment [2] is Mus musculus. Put plainly: Mean effective dose that protects 50% of the mice against AMPA-induced lethality when it administered ip, 60 minutes prior to application of AMPA icv. Type of experiment: functional.
For the next experiment, the target named is Glutamate NMDA receptor. Put plainly: Binding affinity against glycine binding site of NMDA receptor using [3H]glycine. Format: protein-complex assay, Rattus norvegicus.
In experiment [3] the target is Glutamate receptor ionotropic AMPA (Homo sapiens, UniProt P42261+P42262+P42263+P48058).
Description: In vitro binding affinity against AMPA receptor by [3H]AMPA displacement.
The species named for experiment [4] is Mus musculus. The experiment in a line: The compound was tested for Mean effective dose which protects the mice against seizures induced by Maximum electroshock. Type of experiment: functional.
For experiment [5], the species on record is Mus musculus. Put plainly: Percent protection of the mice against seizures induced by Maximum electroshock, by the compound was determined. Format: functional.

As a reminder, the ED50 is the dose that gives a 50% effect, or the effect in half of the subjects. By Ki is commonly meant the equilibrium dissociation constant of an inhibitor or competing ligand from its target. Read a low Ki as a stronger hold on the target.

Turning to `O=C(O)Cn1c(=O)c(=O)[nH]c2cc([N+](=O)[O-])c(-n3ccc(C(=O)O)c3)cc21`, the ED50 in the experiment filed under Mus musculus [1] was 2.4 mg/kg; in the experiment on Mus musculus [2], 1.4 mg/kg. On Glutamate NMDA receptor, this compound yielded an inhibition constant Ki above 30000 nM.
`CCOC(=O)Cn1c(=O)c(=O)[nH]c2cc([N+](=O)[O-])c(-n3ccc(C(=O)O)c3)cc21` showed an inhibitory constant (Ki) in experiment [3] of 215 nM.
For the compound `O=C(O)Cn1c(=O)c(=O)[nH]c2cc(C(F)(F)F)c(-n3ccc(CNC(=O)Nc4ccc(C(=O)O)cc4)c3)cc21`, the ED50 was determined as 1.4 mg/kg in the experiment filed under Mus musculus [1] and 0.27 mg/kg in the experiment with Mus musculus [2]. Further, the Ki on Glutamate NMDA receptor was above 30000 nM; in experiment [3] it was 7 nM.
Consider `O=C(O)Cn1c(=O)c(=O)[nH]c2cc(C(F)(F)F)c(-n3ccc(CNC(=O)Nc4cccc(C(=O)O)c4)c3)cc21`, for which the ED50 is 13.5 mg/kg in the experiment listed under Mus musculus [1] and 3.5 mg/kg in the experiment with Mus musculus [2]. The inhibition constant Ki on Glutamate NMDA receptor is above 30000 nM; in experiment [3] it was 20 nM.
The compound `CCOC(=O)c1ccc(NC(=O)NCc2ccn(-c3cc4nc(O)c(O)nc4cc3C(F)(F)F)c2)cc1` yielded an inhibition constant Ki in experiment [3] of 450 nM.
Regarding `CCOC(=O)Cn1c(=O)c(=O)[nH]c2cc(C(F)(F)F)c(-n3ccc(C(=O)O)c3)cc21`, the Ki was above 30000 nM on Glutamate NMDA receptor and 1500 nM in experiment [3].
In the case of `O=C(O)Cn1c(=O)c(=O)[nH]c2cc(C(F)(F)F)c(-n3ccc(C(=O)O)c3)cc21`, the results for the ED50 in the experiment filed under Mus musculus [1] and with Mus musculus [2] were 2.4 mg/kg and 2.3 mg/kg, respectively. For the same compound, the inhibition constant Ki at Glutamate NMDA receptor was above 30000 nM; in experiment [3] it was 66 nM.
For the compound `O=C(NCc1ccn(-c2cc3nc(O)c(O)nc3cc2C(F)(F)F)c1)Nc1ccc(C(=O)O)cc1`, the 50% effective dose (ED50) with Mus musculus [2] was around 11 mg/kg; in the experiment filed under Mus musculus [4] it was 46 mg/kg. Also, the Protection in the experiment filed under Mus musculus [5] stood at 0%. Further, the Ki on Glutamate NMDA receptor is above 30000 nM; in experiment [3], 54 nM.
Consider `O=C(O)c1ccn(-c2cc3nc(O)c(O)nc3cc2[N+](=O)[O-])c1`, for which the ED50 in the experiment with Mus musculus [2] turned out to be 17 mg/kg. Further, the results for the Ki (at Glutamate NMDA receptor; in experiment [3]) were above 30000 nM and 60 nM, respectively.
With `CCOC(=O)c1cccc(NC(=O)NCc2ccn(-c3cc4c(cc3C(F)(F)F)[nH]c(=O)c(=O)n4CC(=O)O)c2)c1`, the ED50 was determined as 28.5 mg/kg in the experiment filed under Mus musculus [1] and 2.9 mg/kg with Mus musculus [2]. For the same compound, the Ki is above 30000 nM on Glutamate NMDA receptor and 4 nM in experiment [3].
As to `CCOC(=O)c1ccc(NC(=O)NCc2ccn(-c3cc4c(cc3C(F)(F)F)[nH]c(=O)c(=O)n4CC(=O)O)c2)cc1`, in the experiment on Mus musculus [2], the median effective dose (ED50) was 0.8 mg/kg. The values for the Ki (at Glutamate NMDA receptor; in experiment [3]) were above 30000 nM and 4 nM, respectively.
For `NS(=O)(=O)c1cccc2c1c([N+](=O)[O-])cc1nc(O)c(O)nc12` [NBQX], in the experiment listed under Mus musculus [4], the 50% effect level (ED50) was put at a dose of 46 mg/kg. Moreover, the Protection in the experiment filed under Mus musculus [5] turned out to be 31%. At Glutamate NMDA receptor, this compound had an inhibition constant (Ki) of 33000 nM.
In the experiment with Mus musculus [2], `O=c1[nH]c2cc(-n3ccnc3)c([N+](=O)[O-])cc2[nH]c1=O` [YM-90K] registered an ED50 of 13 mg/kg. Moreover, the inhibition constant (Ki) on Glutamate NMDA receptor is 7400 nM.
